Results on one molecule are retold here after US20190369111A1, “MOLECULAR KINETICS EVALUATION METHOD AND SCREENING METHOD” (Tokyo University of Science Foundation, priority 2016, published 2019).

In the test the target is T1, SOS1 protein (Homo sapiens, UniProt Q07889).
T1 construct: endogenous in cells; host or cells: HeLa cells
T1 sequence (Q07889 1-1333): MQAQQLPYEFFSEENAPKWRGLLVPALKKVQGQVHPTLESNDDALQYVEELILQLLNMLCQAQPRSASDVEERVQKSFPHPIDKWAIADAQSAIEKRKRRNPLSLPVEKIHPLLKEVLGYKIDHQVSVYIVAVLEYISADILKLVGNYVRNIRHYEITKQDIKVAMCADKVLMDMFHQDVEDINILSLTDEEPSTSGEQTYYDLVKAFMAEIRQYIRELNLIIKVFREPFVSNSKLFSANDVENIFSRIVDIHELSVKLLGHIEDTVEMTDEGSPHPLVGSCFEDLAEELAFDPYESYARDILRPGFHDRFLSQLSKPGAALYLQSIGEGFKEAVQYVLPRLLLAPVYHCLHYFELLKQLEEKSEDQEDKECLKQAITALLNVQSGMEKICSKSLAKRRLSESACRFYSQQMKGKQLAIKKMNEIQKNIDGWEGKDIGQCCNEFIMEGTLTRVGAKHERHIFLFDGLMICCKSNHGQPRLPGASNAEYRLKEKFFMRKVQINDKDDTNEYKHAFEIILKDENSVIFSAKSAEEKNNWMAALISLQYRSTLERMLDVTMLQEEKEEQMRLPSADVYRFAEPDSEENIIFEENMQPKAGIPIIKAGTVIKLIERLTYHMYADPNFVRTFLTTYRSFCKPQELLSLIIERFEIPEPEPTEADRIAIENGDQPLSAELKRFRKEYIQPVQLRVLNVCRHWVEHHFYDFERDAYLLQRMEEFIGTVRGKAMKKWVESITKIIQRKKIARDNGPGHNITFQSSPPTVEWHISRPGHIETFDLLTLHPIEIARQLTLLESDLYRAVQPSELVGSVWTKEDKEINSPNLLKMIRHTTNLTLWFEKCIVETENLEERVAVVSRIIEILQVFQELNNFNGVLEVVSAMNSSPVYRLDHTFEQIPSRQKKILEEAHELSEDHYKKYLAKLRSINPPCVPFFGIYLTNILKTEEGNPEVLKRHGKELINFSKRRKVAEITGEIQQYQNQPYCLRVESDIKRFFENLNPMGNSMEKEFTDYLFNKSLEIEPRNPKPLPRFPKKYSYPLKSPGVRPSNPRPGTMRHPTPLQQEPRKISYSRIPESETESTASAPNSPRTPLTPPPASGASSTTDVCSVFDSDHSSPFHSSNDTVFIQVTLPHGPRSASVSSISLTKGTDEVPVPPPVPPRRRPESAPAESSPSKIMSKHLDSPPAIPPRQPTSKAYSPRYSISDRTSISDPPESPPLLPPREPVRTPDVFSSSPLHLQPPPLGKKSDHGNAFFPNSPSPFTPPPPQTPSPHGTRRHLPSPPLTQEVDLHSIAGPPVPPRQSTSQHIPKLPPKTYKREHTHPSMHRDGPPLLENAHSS
Put plainly: Amount of SOS1 protein in HeLa cells, Western blot analysis. It is filed as cell-based. The conditions noted are these: 48 hours after addition. As to the method:
HeLa cells were seeded in a 24-well plate at a cell density of 8×10^4 cells/well, and then cultured under conditions of 37° C. and 5 vol % CO2 for 16 hours.
After 16 hours from cell seeding, TUS-007 was added to HeLa cells as follows. As a medium, a serum-free medium (37° C.) in which 1 mass % L-glutamine solution (Sigma-Aldrich) was added to D-MEM (high D-glucose, phenol red, sodium pyruvate (Wako Pure Chemical Industries, Ltd.)) was used. It is noted that the L-glutamine solution was added immediately before use. A DMSO solution containing TUS-007 was mixed with the medium so that the concentration of DMSO was 1 vol %, and added to each well at 500 μL/well, and cultured under conditions of 37° C. and 5 vol % CO2. As a control, DMSO was used.
The medium was removed 48 hours after addition of TUS-007, and then PBS was added to wash the cells. […]
After electrophoresis, proteins were transferred to a PVDF membrane (Immobion™-P, Millipore) under conditions of 100 V and 2 hours using a tank-type blotting device and a transfer buffer (25 mM Tris-HCl, 195 mM glycine, 0.01% SDS, 15% methanol). […] Subsequently, the membrane was treated with a chemiluminescence reagent Immobilon™ Western (Millipore), and then chemiluminescence was detected using a lumino image analyzer LAS-3000 (FUJIFILM Corporation). […]
In general terms: A western blot detects proteins with antibodies after separation by electrophoresis.

The structures appear in SMILES notation.

As to `CC[C@@H](C)[C@H](NC(=O)CCCCCCNC(=O)[C@H](CC(C)C)NC(=O)CNC(=O)c1cc(Cl)ccc1Cl)C(=O)Nc1ccc2[nH]c(Cc3c[nH]c4ccccc34)nc2c1` [TUS-007], the “amount of SOS1 protein” value is given as “not reduced”.
